Experimental data published in PubChem BioAssay (NCI).
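Briefly, cells in 96-well plates were exposed to five compound concentrations for 48 h, and endpoints were estimated by linear interpolation. TGI: total growth inhibition.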

Assays:
Assay in all cases: DTP human tumour cell line panel, 48 h
HS 578T breast = system: HS 578T breast
OVCAR-3 ovarian = system: OVCAR-3 ovarian
KM12 colon = system: KM12 colon
UACC-257 melanoma = system: UACC-257 melanoma
MCF7 breast = system: MCF7 breast
U251 CNS = system: U251 CNS
A498 renal = system: A498 renal
NCI-H460 lung = system: NCI-H460 lung
SR leukemia = system: SR leukemia
ACHN renal = system: ACHN renal
NCI-H522 lung = system: NCI-H522 lung
LOX IMVI melanoma = system: LOX IMVI melanoma
SNB-75 CNS = system: SNB-75 CNS
UACC-62 melanoma = system: UACC-62 melanoma
RPMI-8226 leukemia = system: RPMI-8226 leukemia
MDA-MB-231 breast = system: MDA-MB-231 breast
UO-31 renal = system: UO-31 renal
M14 melanoma = system: M14 melanoma
SW-620 colon = system: SW-620 colon
EKVX NSCLC = system: EKVX NSCLC
OVCAR-8 ovarian = system: OVCAR-8 ovarian
OVCAR-5 ovarian = system: OVCAR-5 ovarian
SF-539 CNS = system: SF-539 CNS
OVCAR-4 ovarian = system: OVCAR-4 ovarian
SK-MEL-28 melanoma = system: SK-MEL-28 melanoma
SK-OV-3 ovarian = system: SK-OV-3 ovarian
RXF 393 renal = system: RXF 393 renal
PC-3 prostate = system: PC-3 prostate
CAKI-1 renal = system: CAKI-1 renal
HOP-92 NSCLC = system: HOP-92 NSCLC
HCT-116 colon = system: HCT-116 colon
MDA-N = system: MDA-N
HT29 colon = system: HT29 colon
SN12C renal = system: SN12C renal
HCT-15 colon = system: HCT-15 colon
786-0 renal = system: 786-0 renal
HCC-2998 colon = system: HCC-2998 colon
TK-10 renal = system: TK-10 renal
K-562 leukemia = system: K-562 leukemia
CCRF-CEM leukemia = system: CCRF-CEM leukemia
COLO 205 colon = system: COLO 205 colon
SNB-19 CNS = system: SNB-19 CNS
HL-60(TB) leukemia = system: HL-60(TB) leukemia
MOLT-4 leukemia = system: MOLT-4 leukemia
NCI-H226 lung = system: NCI-H226 lung
SK-MEL-2 melanoma = system: SK-MEL-2 melanoma
T-47D breast = system: T-47D breast
BT-549 breast = system: BT-549 breast
MALME-3M melanoma = system: MALME-3M melanoma
HOP-62 NSCLC = system: HOP-62 NSCLC
A549 NSCLC = system: A549 NSCLC
NCI-H23 lung = system: NCI-H23 lung
IGROV1 ovarian = system: IGROV1 ovarian
SK-MEL-5 melanoma = system: SK-MEL-5 melanoma
SF-268 CNS = system: SF-268 CNS
NCI/ADR-RES ovarian = system: NCI/ADR-RES ovarian
SF-295 CNS = system: SF-295 CNS
MDA-MB-435 = system: MDA-MB-435
DU-145 prostate = system: DU-145 prostate

Measured: TGI

COc1cc(N(CCC#N)CCC#N)ccc1/C=C1\SC(=S)NC1=O
> 100 µM: all assays above
